Assay results taken from the OligoGym collection.
Where “and” joins values, the source holds several entries; their conditions need not be identical. Equal values may be shown once. After the bases stand the sugars from the 5' end (letter, count) and the backbone: PS all phosphorothioate, else s phosphorothioate and o phosphodiester by linkage. Methylation of C is not given here. k = constrained ethyl (cEt); d = 2'-deoxy (DNA)

Target: MALAT1
Settings: ASO, A431, 0.005 µM

Sequence | target mRNA inhibition
CTTGATCCCAACTCAT (sugars k3 d10 k3, PS) | 11%
CTTTAAGTTCTCTGGC (sugars k3 d10 k3, PS) | 64% and 82%
CTTTCCATTACGCAAC (sugars k3 d10 k3, PS) | 0%
GAAAAAGCTTGTTCAC (sugars k3 d10 k3, PS) | 28%
GAAAACCCACTCTTGG (sugars k3 d10 k3, PS) | 10%
GAAACCAGGAGTGCCA (sugars k3 d10 k3, PS) | 4%
GAAACCTGGGCTCCCG (sugars k3 d10 k3, PS) | 13%
GAAACTCCCCCATTAT (sugars k3 d10 k3, PS) | 6%
GAAATCCCTTCAGGAT (sugars k3 d10 k3, PS) | 14%
GAACAAGTCCTACAAT (sugars k3 d10 k3, PS) | 32%
GAACTCCACAGCTCTT (sugars k3 d10 k3, PS) | 33%
GAATCTTACTTGATAA (sugars k3 d10 k3, PS) | 13%
GAATTAAGACCAAGGG (sugars k3 d10 k3, PS) | 36%
GACAAGCAATTAACTT (sugars k3 d10 k3, PS) | 66% and 53%
GACAGTAGGTATAGTT (sugars k3 d10 k3, PS) | -13%
GACCAAACTGCAGAGT (sugars k3 d10 k3, PS) | 3%
GACCATCCCAAAATGC (sugars k3 d10 k3, PS) | 8%
GACGCAATTCTCCCTG (sugars k3 d10 k3, PS) | 27%
GACTGAATATGAACCA (sugars k3 d10 k3, PS) | 51% and 76%
GACTTGGCAGTCTGCC (sugars k3 d10 k3, PS) | 10%
GACTTTCTCCCCCAAC (sugars k3 d10 k3, PS) | 6%
GAGAAAGTGCCATGGT (sugars k3 d10 k3, PS) | 26%
GAGATACCTGTCTGAG (sugars k3 d10 k3, PS) | 40%

Sequence | target mRNA inhibition
GAGCATTGGAGATCAG (sugars k3 d10 k3, PS) | 29%
GAGGGACAGTAGGTAT (sugars k3 d10 k3, PS) | 19%
GAGGGAGTTGAGGCAA (sugars k3 d10 k3, PS) | 24%
GAGGGCCTCTATTGCC (sugars k3 d10 k3, PS) | 14%
GAGTATGCTGATAAAC (sugars k3 d10 k3, PS) | 37%
GAGTGAAGTGTACTAT (sugars k3 d10 k3, PS) | 62% and 77%
GAGTTCAAGTGGCCTT (sugars k3 d10 k3, PS) | 17%
GATCACCTTCCGCCGC (sugars k3 d10 k3, PS) | 6%
GATCATAATCTCCCAC (sugars k3 d10 k3, PS) | 41%
GATCTTGAATTACTTC (sugars k3 d10 k3, PS) | 49%
GATGTGATTTTTAACC (sugars k3 d10 k3, PS) | 52% and 56%
GATTAATGTAGTGTAA (sugars k3 d10 k3, PS) | 23%
GATTGTAAGCATTTAA (sugars k3 d10 k3, PS) | 54% and 67%
GCAAGGTCTCATACAC (sugars k3 d10 k3, PS) | 48% and 59%
GCAATTCAAAATCCTG (sugars k3 d10 k3, PS) | 51%
GCACATCATGCTATTC (sugars k3 d10 k3, PS) | 45%
GCACGGAAATTTTTCT (sugars k3 d10 k3, PS) | -3%
GCACGGGCTGTCTGCT (sugars k3 d10 k3, PS) | -12%
GCACTAAAGATCACTG (sugars k3 d10 k3, PS) | 23%
GCACTGATCACTTTAG (sugars k3 d10 k3, PS) | 63% and 47% and 50%
GCAGCGGGATCAGAAC (sugars k3 d10 k3, PS) | 34%
GCAGTAGGGCTTCTCA (sugars k3 d10 k3, PS) | -8%
GCAGTTTCTATAGTAG (sugars k3 d10 k3, PS) | 45%

Sequence | target mRNA inhibition
GCATAAAGCTGAAATC (sugars k3 d10 k3, PS) | 4%
GCCAACTTGGAAGTTG (sugars k3 d10 k3, PS) | -19%
GCCACTCAAATGCCTA (sugars k3 d10 k3, PS) | 18%
GCCAGTGGCCCACTCT (sugars k3 d10 k3, PS) | -8%
GCCATCTACTATTTCT (sugars k3 d10 k3, PS) | 38%
GCCCCCTCAGCAGAAG (sugars k3 d10 k3, PS) | 25%
GCCCCTGCGCTGGCTG (sugars k3 d10 k3, PS) | 12%
GCCCGCTTTCCCCCTT (sugars k3 d10 k3, PS) | -29%
GCCGTTGGCTGCCAGT (sugars k3 d10 k3, PS) | -8%
GCCTACCACTCTAAGA (sugars k3 d10 k3, PS) | 29%
GCCTACTCAAGCTCTT (sugars k3 d10 k3, PS) | 20%
GCCTCAATGCCTACCG (sugars k3 d10 k3, PS) | -11%
GCCTGCTACCTTCATC (sugars k3 d10 k3, PS) | 36%
GCCTGGAATTATTATA (sugars k3 d10 k3, PS) | 31%
GCCTTTAGGATTCTAG (sugars k3 d10 k3, PS) | 30%
GCCTTTATCACTCAGC (sugars k3 d10 k3, PS) | 29%
GCCTTTGTGAGGGAGG (sugars k3 d10 k3, PS) | -23%
GCCTTTTCTAACATAG (sugars k3 d10 k3, PS) | -1%
GCGAGTTCAAGTGGCC (sugars k3 d10 k3, PS) | -5%
GCGCCGGGCTTCTGCG (sugars k3 d10 k3, PS) | 29%
GCGGTTTCCTCAAGCT (sugars k3 d10 k3, PS) | 20%
GCTAAGCAATATCTTA (sugars k3 d10 k3, PS) | 32%
GCTACTTAGCTGTGGT (sugars k3 d10 k3, PS) | 28%

Sequence | target mRNA inhibition
GCTAGGGAAAAGTGGT (sugars k3 d10 k3, PS) | 5%
GCTCGCCTCCTCCGTG (sugars k3 d10 k3, PS) | 27%
GCTCGCTTGCTCCTCA (sugars k3 d10 k3, PS) | 39%
GCTCTGTAGTCCTTTC (sugars k3 d10 k3, PS) | 42%
GCTGAAATTGTCTCAA (sugars k3 d10 k3, PS) | 45%
GCTGAGGCTTCCCGGC (sugars k3 d10 k3, PS) | 15%
GCTGATAAACTCACTG (sugars k3 d10 k3, PS) | 55% and 65%
GCTGCAAACTTTAGAC (sugars k3 d10 k3, PS) | -9%
GCTTACAGATTTGCTG (sugars k3 d10 k3, PS) | 8%
GCTTATGGAACTTGAA (sugars k3 d10 k3, PS) | 10%
GCTTGGGAAATCTTAG (sugars k3 d10 k3, PS) | 7%
GCTTTAAATGACGCAA (sugars k3 d10 k3, PS) | -22%
GGAAGATTAAAGTGTG (sugars k3 d10 k3, PS) | 21%
GGACAGCTAAGATAGC (sugars k3 d10 k3, PS) | 22%
GGACGGTTGAGAAGTG (sugars k3 d10 k3, PS) | -4%
GGAGGCAAAAAGTAGT (sugars k3 d10 k3, PS) | 9%
GGAGTTACTTGCCAAC (sugars k3 d10 k3, PS) | 24%
GGAGTTGAGGCAAGTC (sugars k3 d10 k3, PS) | 41%
GGATTAATGTAGTGTA (sugars k3 d10 k3, PS) | 86% and 96%
GGATTTGAACCCCGTC (sugars k3 d10 k3, PS) | 30%
GGCAAAAAGTAGTTCT (sugars k3 d10 k3, PS) | 31%
GGCAAATTAATGGCCT (sugars k3 d10 k3, PS) | 25%
GGCCGTTGGCTGCCAG (sugars k3 d10 k3, PS) | 21%

Sequence | target mRNA inhibition
GGCCTTTTAAAGTAGA (sugars k3 d10 k3, PS) | 28%
GGCGGACTTTCTCCCC (sugars k3 d10 k3, PS) | -17%
GGCTGACACTTCTCTT (sugars k3 d10 k3, PS) | 52% and 64%
GGGAATACTCTTCCAA (sugars k3 d10 k3, PS) | 14%
GGGACGGTTGAGAAGT (sugars k3 d10 k3, PS) | 7%
GGGAGTTACTTGCCAA (sugars k3 d10 k3, PS) | 10%
GGGAGTTGAGGCAAGT (sugars k3 d10 k3, PS) | 6%
GGTAATTACTCTTGAT (sugars k3 d10 k3, PS) | 50%
GGTCTAGGATCCTCTA (sugars k3 d10 k3, PS) | 23%
GGTGAATTCAACTGGA (sugars k3 d10 k3, PS) | 49%
GGTTAGGTATGAGCTT (sugars k3 d10 k3, PS) | 8%
GGTTATAGCTTGACAA (sugars k3 d10 k3, PS) | 78% and 95%
GGTTTAAGTTGGTTTT (sugars k3 d10 k3, PS) | 90% and 97%
GGTTTTAATACCCTTC (sugars k3 d10 k3, PS) | 51%
GTAAAAACAGGTCATC (sugars k3 d10 k3, PS) | 21%
GTAAACCTGTGGTGGT (sugars k3 d10 k3, PS) | 56% and 60%
GTAACCTATTGACTAT (sugars k3 d10 k3, PS) | 33%
GTACATTTTGCCCTTA (sugars k3 d10 k3, PS) | 64% and 45%
GTACGAAACTCCCCCA (sugars k3 d10 k3, PS) | 38%
GTAGATTCCGTAACTT (sugars k3 d10 k3, PS) | 73% and 54% and 50%
GTATTACTCTAATCAC (sugars k3 d10 k3, PS) | 34%
GTATTATAATAGAGCT (sugars k3 d10 k3, PS) | 4%
